# Results reported in PubChem BioAssay AID330 (DTP/NCI, 2004).
# Values joined by “and” are separate entries in the source; they are usually repeats but may differ in a detail not shown here. Equal values may be shown once. Toxic doses and inconclusive results are not listed.
# Tested on: P388 leukemia ip, CD2F1 mice, survival T/C
# Assay: NCI In Vivo Anticancer Drug Screen. Data for tumor model P388 Leukemia (intraperitoneal) in CD2F1 (CDF1) mice
# Details: endpoint: median survival time, higher = longer survival
# Summary of the method: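 Mice carrying the transplanted tumor received test compound or vehicle. Survival was recorded in each group, and the value is the treated-group measurement divided by that of the vehicle-treated control group.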
# [1] = dose: 50.0 mg/kg/injection, schedule: Q01DX009 (ip), vehicle: saline
# [2] = dose: 100.0 mg/kg/injection, schedule: Q01DX009 (ip), vehicle: saline
# [3] = dose: 200.0 mg/kg/injection, schedule: Q01DX009 (ip), vehicle: saline
# [4] = dose: 50.0 mg/kg/injection, schedule: Q01DX005 (ip), vehicle: saline
# [5] = dose: 100.0 mg/kg/injection, schedule: Q01DX005 (ip), vehicle: saline
# [6] = dose: 200.0 mg/kg/injection, schedule: Q01DX005 (ip), vehicle: saline
# [7] = dose: 50.0 mg/kg/injection, schedule: Q01DX009 (ip), vehicle: saline with Tween-80
# [8] = dose: 100.0 mg/kg/injection, schedule: Q01DX009 (ip), vehicle: saline with Tween-80
# [9] = dose: 200.0 mg/kg/injection, schedule: Q01DX009 (ip), vehicle: saline with Tween-80
# [10] = dose: 50.0 mg/kg/injection, schedule: Q01DX005 (ip), vehicle: Klucel (hydroxypropylcellulose) (HPC)
# [11] = dose: 100.0 mg/kg/injection, schedule: Q01DX005 (ip), vehicle: Klucel (hydroxypropylcellulose) (HPC)
# [12] = dose: 200.0 mg/kg/injection, schedule: Q01DX005 (ip), vehicle: Klucel (hydroxypropylcellulose) (HPC)
# [13] = dose: 100.0 mg/kg/injection, schedule: Q01DX001 (ip), vehicle: saline with Tween-80
# [14] = dose: 60.0 mg/kg/injection, schedule: Q01DX005 (ip), vehicle: saline with Tween-80
# [15] = dose: 120.0 mg/kg/injection, schedule: Q01DX005 (ip), vehicle: saline with Tween-80
# [16] = dose: 240.0 mg/kg/injection, schedule: Q01DX005 (ip), vehicle: saline with Tween-80
# [17] = dose: 25.0 mg/kg/injection, schedule: Q01DX009 (ip), vehicle: saline with Tween-80
# [18] = dose: 50.0 mg/kg/injection, schedule: Q01DX005 (ip), vehicle: saline with Tween-80
# [19] = dose: 100.0 mg/kg/injection, schedule: Q01DX005 (ip), vehicle: saline with Tween-80
# [20] = dose: 200.0 mg/kg/injection, schedule: Q01DX005 (ip), vehicle: saline with Tween-80
structure (smiles),measurement,setting,value
COc1ccc2c(NCCNc3c4ccccc4nc4cc(OC)ccc34)c3ccccc3nc2c1,T/C,"dose: 0.62 mg/kg/injection, schedule: Q01DX009 (ip), vehicle: other",90 % of control
same,T/C,"dose: 1.25 mg/kg/injection, schedule: Q01DX009 (ip), vehicle: other",90 % of control
same,T/C,"dose: 2.5 mg/kg/injection, schedule: Q01DX009 (ip), vehicle: other",96 % of control
same,T/C,"dose: 5.0 mg/kg/injection, schedule: Q01DX009 (ip), vehicle: other",100 % of control
same,T/C,"dose: 10.0 mg/kg/injection, schedule: Q01DX009 (ip), vehicle: other",106 % of control
same,T/C,"dose: 20.0 mg/kg/injection, schedule: Q01DX009 (ip), vehicle: other",96 % of control
CC1=CC(OC2CCCCO2)CC(C)(C)C1 (stereo not drawn),T/C,[1],100 % of control
same,T/C,[2],99 % of control
same,T/C,[3],101 % of control
CN(C)CCCN1CCC2(CCSCC2)C1,T/C,[4],102 % of control
same,T/C,[5],99 % of control
same,T/C,[6],91 % of control
O=C(O)C1=C(/C=C/Cl)CC1,T/C,[7],102 % of control
same,T/C,[8],96 % of control
same,T/C,[9],99 % of control
O=C(CSC1CCc2ccccc21)N/N=C/c1ccccc1O (stereo not drawn),T/C,[10],96 % of control
same,T/C,[11],98 % of control
same,T/C,[12],89 % of control
CCOC(=O)Nc1cc(NC/C(=N/O)c2ccc(C(F)(F)F)cc2)c([N+](=O)[O-])c(N)n1,T/C,"dose: 50.0 mg/kg/injection, schedule: Q01DX001 (ip), vehicle: saline with Tween-80",94 % of control
same,T/C,[13],96 % of control
C/C(=N\Nc1cc(C)nc2ccc(C)cc12)c1cn(C)n(-c2ccccc2)c1=O,T/C,"dose: 50.0 mg/kg/injection, schedule: Q01DX009 (ip), vehicle: Klucel (hydroxypropylcellulose) (HPC)",97 % of control
same,T/C,"dose: 100.0 mg/kg/injection, schedule: Q01DX009 (ip), vehicle: Klucel (hydroxypropylcellulose) (HPC)",86 % of control
NC(=O)c1[nH]ncc1C1OCCC1O (stereo not drawn),T/C,[13],100 % of control
same,T/C,"dose: 200.0 mg/kg/injection, schedule: Q01DX001 (ip), vehicle: saline with Tween-80",100 % of control
same,T/C,"dose: 400.0 mg/kg/injection, schedule: Q01DX001 (ip), vehicle: saline with Tween-80",100 % of control
COc1ccc(OC(C)C(=O)O)cc1 (stereo not drawn),T/C,[10],101 % of control
same,T/C,[11],98 % of control
same,T/C,[12],95 % of control
CC(C)[C@]12O[C@H]1[C@@H]1O[C@]13[C@]1(O[C@H]1C[C@H]1C4=C(C(=O)OC4)[C@@H](O)C[C@@]13C)[C@@H]2O,T/C,"dose: 0.03 mg/kg/injection, schedule: Q01DX009 (ip), vehicle: saline + alcohol",100 % of control and 101 % of control and 119 % of control
same,T/C,"dose: 0.05 mg/kg/injection, schedule: Q01DX009 (ip), vehicle: saline + alcohol",117 % of control
same,T/C,"dose: 0.06 mg/kg/injection, schedule: Q01DX005 (ip), vehicle: saline + alcohol",110 % of control
same,T/C,"dose: 0.06 mg/kg/injection, schedule: Q01DX005 (iv), vehicle: saline + alcohol",107 % of control
same,T/C,"dose: 0.06 mg/kg/injection, schedule: Q01DX009 (ip), vehicle: saline + alcohol",117 % of control
same,T/C,"dose: 0.1 mg/kg/injection, schedule: Q01DX009 (ip), vehicle: saline + alcohol",124 % of control
same,T/C,"dose: 0.13 mg/kg/injection, schedule: Q01DX005 (ip), vehicle: saline + alcohol",122 % of control
same,T/C,"dose: 0.13 mg/kg/injection, schedule: Q01DX005 (iv), vehicle: saline + alcohol",108 % of control
same,T/C,"dose: 0.25 mg/kg/injection, schedule: Q01DX005 (iv), vehicle: saline + alcohol",108 % of control
same,T/C,"dose: 0.25 mg/kg/injection, schedule: Q01DX009 (ip), vehicle: saline + alcohol",157 % of control and 158 % of control
same,T/C,"dose: 0.5 mg/kg/injection, schedule: Q01DX005 (iv), vehicle: saline + alcohol",116 % of control
O=[N+]([O-])c1cc2ccc3ccoc3c2o1,T/C,[10],90 % of control
same,T/C,[11],97 % of control
same,T/C,[12],96 % of control
O=C(Nc1ccc(Cl)cc1)Nc1nnc2nc(C(C(=O)c3ccc(Cl)cc3Cl)c3nc4nnc(NC(=O)Nc5ccc(Cl)cc5)n4[nH]c3=O)c(=O)[nH]n12,T/C,[14],103 % of control
same,T/C,[15],101 % of control
same,T/C,[16],101 % of control
COC(=O)c1nnn(-c2ccccc2)n1,T/C,"dose: 25.0 mg/kg/injection, schedule: Q01DX005 (ip), vehicle: Klucel (hydroxypropylcellulose) (HPC)",99 % of control
same,T/C,[10],101 % of control
same,T/C,[11],101 % of control
O=C(NC1c2ccccc2CCc2ccccc21)C(F)(F)F,T/C,"dose: 12.5 mg/kg/injection, schedule: Q01DX009 (ip), vehicle: saline with Tween-80",86 % of control
same,T/C,[17],117 % of control
same,T/C,[7],90 % of control
same,T/C,[8],86 % of control
same,T/C,[9],94 % of control
Cc1ccc[c]([Hg][Cl])c1N=Nc1ccccc1,T/C,"dose: 9.5 mg/kg/injection, schedule: Q01DX009 (ip), vehicle: saline with Tween-80",118 % of control
same,T/C,"dose: 19.0 mg/kg/injection, schedule: Q01DX009 (ip), vehicle: saline with Tween-80",110 % of control
c1ccc2c(C3N4CCCN3CC4)c[nH]c2c1 (stereo not drawn),T/C,[17],103 % of control and 104 % of control and 119 % of control
same,T/C,[7],98 % of control and 106 % of control and 118 % of control
same,T/C,[8],103 % of control and 114 % of control and 122 % of control
same,T/C,[9],105 % of control and 95 % of control
C/C(=N\O)C(O)c1ccccc1 (stereo not drawn),T/C,[2],88 % of control
same,T/C,[3],93 % of control
same,T/C,"dose: 400.0 mg/kg/injection, schedule: Q01DX009 (ip), vehicle: saline",100 % of control
S=c1ncnc2cc3[nH][nH]cc3cc12,T/C,[18],90 % of control
same,T/C,[19],86 % of control
same,T/C,[20],92 % of control
CC(O)C(N)C(=O)O (stereo not drawn),T/C,[4],104 % of control
same,T/C,[1],103 % of control
same,T/C,[5],100 % of control and 108 % of control
same,T/C,[2],105 % of control
same,T/C,[6],100 % of control and 103 % of control
same,T/C,[3],102 % of control
CCOC(=O)C(N=Nc1ccc(Br)c(C)c1)C(C)=O (stereo not drawn),T/C,[18],107 % of control
same,T/C,[19],93 % of control
same,T/C,[20],97 % of control
N=c1c2ccccc2nc2n1CCCCCCC2,T/C,"dose: 25.0 mg/kg/injection, schedule: Q04DX003 (ip), vehicle: Klucel (hydroxypropylcellulose) (HPC)",103 % of control
same,T/C,"dose: 50.0 mg/kg/injection, schedule: Q04DX003 (ip), vehicle: Klucel (hydroxypropylcellulose) (HPC)",91 % of control
CCC(C)n1c(C)nc2cc(C(F)(F)F)cc(N)c21 (stereo not drawn),T/C,"dose: 50.0 mg/kg/injection, schedule: Q01DX009 (ip), vehicle: saline + alcohol",99 % of control
same,T/C,"dose: 100.0 mg/kg/injection, schedule: Q01DX009 (ip), vehicle: saline + alcohol",99 % of control
NCC(=O)c1ccc2ccccc2c1,T/C,"dose: 60.0 mg/kg/injection, schedule: Q01DX005 (ip), vehicle: Klucel (hydroxypropylcellulose) (HPC)",105 % of control
same,T/C,"dose: 120.0 mg/kg/injection, schedule: Q01DX005 (ip), vehicle: Klucel (hydroxypropylcellulose) (HPC)",106 % of control
COc1cc(O)c2c(=O)c3c(O)c(O)ccc3oc2c1,T/C,"dose: 0.63 mg/kg/injection, schedule: Q01DX009 (ip), vehicle: saline",108 % of control
same,T/C,"dose: 1.25 mg/kg/injection, schedule: Q01DX009 (ip), vehicle: saline",110 % of control
same,T/C,"dose: 2.5 mg/kg/injection, schedule: Q01DX009 (ip), vehicle: saline",101 % of control
same,T/C,"dose: 5.0 mg/kg/injection, schedule: Q01DX009 (ip), vehicle: saline",100 % of control
O=C(CN1CC1)NCCCCCCCCCNC(=O)CN1CC1,T/C,"dose: 2.5 mg/kg/injection, schedule: Q01DX009 (ip), vehicle: saline with Tween-80",90 % of control
same,T/C,"dose: 5.0 mg/kg/injection, schedule: Q01DX009 (ip), vehicle: saline with Tween-80",150 % of control
same,T/C,"dose: 10.0 mg/kg/injection, schedule: Q01DX009 (ip), vehicle: saline with Tween-80",186 % of control
O=C1NN=C(C(O)c2ccccc2)C1(O)c1ccccc1 (stereo not drawn),T/C,[14],91 % of control
same,T/C,"dose: 100.0 mg/kg/injection, schedule: Q04DX002 (ip), vehicle: distilled water + alcohol",103 % of control
same,T/C,[15],98 % of control
same,T/C,"dose: 200.0 mg/kg/injection, schedule: Q04DX002 (ip), vehicle: distilled water + alcohol",98 % of control
same,T/C,[16],93 % of control
same,T/C,"dose: 400.0 mg/kg/injection, schedule: Q04DX002 (ip), vehicle: distilled water + alcohol",94 % of control
